Data from patent publication US8921108B2, “Differentiated human liver cell cultures and their use in bioartificial liver systems” (Academisch Ziekenhuis Bij de Universiteit van Amsterdam, priority 2009, dated 2014).
Marks after values point to notes of the source that are not given here.

System: HepaRG cells
Assay: AMC-BAL bioreactor functionality test of HepaRG cells
Format: cell-based, human
Description: One liter of HepaRG medium containing 75 ml of viable HepaRG cells is injected under sterile conditions into an AMC-BAL bioreactor (cf. Flendrig et al.^15) through three loading ports. […] To ensure optimal cell attachment and an even cell distribution, bioreactors are rotated 340° (back and forth) along the longitudinal axis at 1 revolution/min. After this attachment period, dead and unattached cells are removed by flushing 500 mL of fresh culture medium through the bioreactor at 150 mL/min. From then on bioreactors are perfused with 1.5 L recirculating culture medium at 150 mL/min. The medium is refreshed every three days. The bioreactors are cultured in HepaRG medium for 14 days. […] At least one week prior to clinical application, 1 mM CG (Sigma) is added to the media to enhance the urea cycle. The bioreactors are tested every culture week and prior to clinical application for sterility and function. Laboratory model AMC-BAL bioreactors, e.g. of a different scale, are produced in essentially the same way as described above. These laboratory model bioreactors are used e.g. for clinical testing in animal models, such as rats with acute liver failure.
Thirdly, the culture medium is replaced by 1500 ml test medium. […] At first 700 ml test medium is flushed through the bioreactor followed by recirculation of 800 ml test medium during 24 hours. […] From the changes in concentration an activity per hour and per billion cells seeded is calculated.

[1] = Bioreactor −DMSO +CG versus Monolayer + DMSO − CG
[2] = Bioreactor −DMSO +CG versus Monolayer − DMSO − CG
[3] = HepaRG in AMC-BAL bioreactor, 13 days, −DMSO, 1 mM CG

NC(=O)N[C@@H](CCC(=O)O)C(=O)O [CG, carbamoyl glutamate]
% improvement by bioreactor: 15N urea enrichment [1]: 157* % | % improvement by bioreactor: Ammonia elimination [1]: 134% | % improvement by bioreactor: ApoA1 synthesis [1]: 113% | % improvement by bioreactor: Lactate consumption [1]: conversion* | % improvement by bioreactor: Urea production [1]: 187* % | % improvement by bioreactor: 15N urea enrichment [2]: 418* % | % improvement by bioreactor: Ammonia elimination [2]: 199* % | % improvement by bioreactor: ApoA1 synthesis [2]: 154% | % improvement by bioreactor: Lactate consumption [2]: conversion* | % improvement by bioreactor: Urea production [2]: 262* % | 15N urea enrichment [3]: 25.1 ± 3.7 % of total urea | Ammonia elimination [3]: 143 ± 105 nmol/h/mg protein | ApoA1 synthesis [3]: 1.2 ± 0.9 ug/h/mg protein | Lactate consumption [3]: 42.1 ± 14.7 nmol/h/mg protein | Urea production [3]: 13.1 ± 1.2 nmol/h/mg protein
